Experimental data reported in patent US6495699B2, “Metalloproteinase inhibitors, pharmaceutical compositions containing them, and their use” (Agouron Pharmaceuticals Inc., priority 1996, dated 2002).

Tests used:
LogP = assay type: physicochemical
[1] = target: T1, human progelatinase A (GelA), catalytic and fibronectin-like portion (Homo sapiens, UniProt P08253); test: Fluorometric MCA-peptide hydrolysis assay, gelatinase A (GelA); assay type: biochemical; conditions: apparent Ki; 10 μM MCA peptide substrate, 37° C., pH 7.5
T1 construct: The catalytic and fibronectin-like portion of human progelatinase A (GelA) was expressed as a fusion protein with ubiquitin; ubiquitin; made in house; host or cells: E. coli
T1 sequence (P08253 110-465 limits assumed): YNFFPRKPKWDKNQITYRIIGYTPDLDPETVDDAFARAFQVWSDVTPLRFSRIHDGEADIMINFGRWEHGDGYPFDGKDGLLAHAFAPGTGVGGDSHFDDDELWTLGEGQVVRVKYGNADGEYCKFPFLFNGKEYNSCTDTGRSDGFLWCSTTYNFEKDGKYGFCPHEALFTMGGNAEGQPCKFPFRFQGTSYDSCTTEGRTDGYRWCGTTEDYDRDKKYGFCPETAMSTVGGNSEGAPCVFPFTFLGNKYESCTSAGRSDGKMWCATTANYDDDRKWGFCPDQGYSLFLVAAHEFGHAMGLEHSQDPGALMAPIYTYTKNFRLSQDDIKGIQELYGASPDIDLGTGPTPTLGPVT
In short: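 E. coli-expressed ubiquitin fusion of human proGelA catalytic plus fibronectin-like domains, autoactivated; 10 μM MCA-Pro-Leu-Gly-Leu-DPA-Ala-Arg-NH2, pH 7.5 Tricine/NaCl/CaCl2/Zn buffer, 2% DMSO, 37° C, 60 min. Fluorescence 328/393 nm; steady-state rates fitted to competitive inhibition or Morrison tight-binding equation giving Ki,app (≈Ki since [S]<<Km).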

[2] = target: T2, human collagenase-3 (Coll3) (Homo sapiens, UniProt P45452); test: Fluorometric MCA-peptide hydrolysis assay, collagenase-3 (Coll3); assay type: biochemical; conditions: apparent Ki; 10 μM MCA peptide substrate, 37° C., pH 7.5; read-out: Coll3 (Ki,app)
T2 construct: the catalytic domain was liberated by treatment with 2 mM APMA at room temperature overnight; ubiquitin (N, cleaved yes); made in house; host or cells: E. coli

With `CNC(=O)[C@@H](NC(=O)[C@@H](CC(=O)O)n1ccc(-c2ccc(-c3ccc(C#N)cc3)cc2)c1)C(C)(C)C` [Example 5(c), 3(R)-[3-(4′-Cyanobiphenyl-4-yl)-1H-pyrrol-1-yl]-N-[2,2-dimethyl-1(S)-(methylcarbamoyl)propyl]succinamic Acid] the logP (LogP) was 3.41, the GelA (Ki,app) [1] was 0.041 nM and the Ki [2] was 0.049 nM.
